Laboratory results taken from patent US4343795A, “Biologically active amides” (priority 1977, dated 1982).
Where a name gives a salt, the structure may show the parent alone. Non-standard residues stand in square brackets, D forms with d. Residues, ends and D or L forms follow the SMILES beside them. Phe(4-NO2) = N[C@@H](Cc1ccc([N+](=O)[O-])cc1)C(=O)O

Tests used:
[1] = tested on: rat; test: Antidiarrhoeal activity in the rat (castor oil); assay type: in vivo; conditions: for ANTIDARRHOEA ED50 p.o. / ANTIDARRHOEA ED50 s.c.: castor oil 15 minutes after peptide
Protocol: (B) Antidiarrhoeal activity in the rat. In this procedure rats were starved for 24 hours, the peptide then administered either subcutaneously or orally followed after 15 minutes by 1 ml. castor oil per rat given orally.
(§1) From the data obtained the respective ED50 figures were calculated (i.e. the dose required to elicit the appropriate effect in 50% of the animals). N.T.: not tested.

[2] = tested on: mice; test: Analgesia in mice in the writhing test; assay type: in vivo; conditions: mouse, p.o.
Text: As a further example the compounds are effective in reducing acetic acid-induced writhing in mice when tested by a modification of the method of Henderson et. al., J. Pharm. Exp. Therap. 125 (1959), 237; the compounds being administered orally and this reduction in writhing is abolished by naloxone.
(D) Analgesia in mice in the writhing test (modification of the method of Henderson et. al. (J. Pharm. Exp. Therap., 125,(1959),237) the peptide being administered orally.
as §1

[3] = tested on: guinea-pigs; test: Anti-tussive testing, citric acid aerosol in guinea-pigs; assay type: in vivo; conditions: guinea-pig; for ANTITUSSIVE ED50 p.o.: 20% citric acid aerosol 30 minutes after compound
Protocol: J. Pharmacol., 39, (1970) 225.
(C) For anti-tussive testing, guinea-pigs are subjected to an aerosol containing 20% citric acid, 30 minutes after administration of compound (orally or subcutaneously). The number of coughs during a five minute exposure are counted and meaned for six animals per treatment. The method is that described by Boura, A. L. A., Green, A. F. and Saunders, I. A. Br. J. Pharmac., May 1970, Vol. 39, No. 1, page 225.
as §1

[4] = tested on: mice; test: Analgesia in mice in the hot plate test; assay type: in vivo; conditions: i.c.v.
Protocol: (A) Analgesia in mice in the hot plate test (modification of the method of Eddy, N. B. et al., J. Pharm. Exp. Therap. (1953) 107, 385, the peptide being administered by intracerebroventricular injection).
as §1

[5] = tested on: laboratory animals including rats and mice; test: Induction of anaesthesia / abolition of the righting reflex in laboratory animals; conditions: laboratory animals such as mice, up to lethal doses

Compound	ANTIDARRHOEA ED50 p.o. [1] [mg/kg]	ANTIDARRHOEA ED50 s.c. [1] [mg/kg]	ANALGESIA: WRITHING ED50 [2] [mg/kg]	ANTITUSSIVE ED50 p.o. [3] [mg/kg]	ANALGESIA: MOUSE HOT PLATE ED50 [4] [μg/mouse]	ANTITUSSIVE (ED50 column): activity at 10 p.o. ([3]; at 10 mg/kg p.o.)	ANTIDARRHOEA p.o. (ED50 column): activity at 10 ([1]; at 10 mg/kg p.o.)	Abolition of the righting reflex [5]
CSCC[C@@H](NC(=O)[C@@H](N)Cc1ccc(O)cc1)C(=O)NCC(=O)N[C@@H](Cc1ccc([N+](=O)[O-])cc1)C(=O)N1CCC[C@H]1C(N)=O [Example 1, H.Tyr.D-Met.Gly.Phe(4NO2).Pro.NH2] (H-Y[dM]G[Phe(4-NO2)]P-NH2)	2	0.05	35	0.7	0.007	–	–	–
CSCC[C@@H](NC(=O)[C@@H](N)Cc1ccc(O)cc1)C(=O)NCC(=O)N[C@@H](Cc1ccccc1)C(=O)N1CCC[C@@H]1C(=O)O [Example 3, H.Tyr.D-Met.Gly.Phe.D-Pro.OH HCl] (H-Y[dM]GF[dP]-OH)	7	2	–	–	0.005	None	–	–
CSCC[C@@H](NC(=O)[C@@H](N)Cc1ccc(O)cc1)C(=O)NCC(=O)N[C@@H](Cc1ccc([N+](=O)[O-])cc1)C(=O)N1CCC[C@H]1C(=O)O [Example 4, H.Tyr.D-Met.Gly.Phe(4NO2).Pro.OH HCl] (H-Y[dM]G[Phe(4-NO2)]P-OH)	–	0.2	–	–	0.07	–	None	–
CN1CC[C@]23c4c5ccc(O)c4O[C@H]2[C@@H](O)C=C[C@H]3[C@H]1C5 [morphine]	–	–	–	–	–	–	–	does not abolish the righting reflex
H.Tyr.D-Met(O2).Gly.Phe(4NO2).Pro.NH2 [Example 7]	0.3	0.05	–	3	0.00008	–	–	–
H.Tyr.D-Met.Gly.Phe(4Cl).Pro.NH2 [Example 9]	10	0.2	–	–	0.005	–	–	–
Tyr.D-Met.Gly.Phe(4NO2).homoPro.NH2 [Example 21]	2	0.03	–	–	0.003	–	–	–
